{"source": "patent US9433686B2", "about": "“Methods for treating castration resistant prostate cancer and metastasis by reducing B-cell number and/or function” (The Regents of the University of California, priority 2011, dated 2016)", "key": {"IKK": {"tested_on": "IKK", "experiment": "IκBα phosphorylation in PMA-stimulated Myc-CaP cells", "type": "cell-based, mouse", "conditions": "1 hr pre-treatment, AG490 100 μM, PMA 10 ng/ml 10 min", "protocol": "(§1) FIG. 15. Selectivity of IKKβ and STAT3 phosphorylation inhibitors. A. Myc-CaP cells were cultured to 60% confluency and pre-treated for 1 hr with AG490 (100 μM) or ML120B (20 μM), followed by stimulation with PMA (10 ng/ml) for 10 min. Cells were collected and IκBα phosphorylation was analyzed. B. Myc-CaP cells were pre-treated with AG490 or ML120B and after 1 hr, were stimulated with IL-6 (20 ng/ml) for 30 min. Cells were collected and STAT3 phosphorylation was analyzed by immunoblotting.\n(§2) Total tissue RNA was prepared using RNAeasy (Qiagen). Quantitative PCR was performed as described^38. Cells and tumors were lysed and analyzed by SDS-polyacrylamide gel electrophoresis and immunoblotting^38 with antibodies to histone H3, α-tubulin, STAT3 (Santa Cruz Biotechnology), ERK, phospho-ERK, AKT, phospho-AKT, phospho-STAT3 (Cell Signaling). Nuclear extracts were prepared and analyzed for NF-κB DNA-binding as described^39."}, "STAT3 [1]": {"tested_on": "STAT3", "experiment": "STAT3 phosphorylation in myc-CaP tumors after castration (immunohistochemistry)", "type": "in vivo, FVB mice", "conditions": "phospho-STAT3 staining", "excerpt": "FIG. 14. STAT3 activation and its role in CR-CaP emergence. A,B WT+Ikkβ^F/F and WT+Ikkβ^Δ/Δ radiation chimeras (n=10 each group) bearing myc-CaP allografts were established as above and injected with poly(IC) to delete IKKβ[…] in BMDC before castration or sham operation. After one month, mice were sacrificed for analysis. A. Lymphocytes were isolated from indicated tissues and analyzed for IKKβ expression. B. Tumor samples were immunoblotted to determine expression and phosphorylation of indicated signaling proteins. C,D FVB mice bearing myc-CaP tumors were castrated. Starting one day before castration, the mice (n=10 per group) were injected twice daily with vehicle or AG490, an inhibitor of STAT3 phosphorylation. C. One week after castration, tumors were collected, paraffin-embedded, sectioned and stained with phospho-STAT3 antibody. D. Tumor volume was measured every 2-3 days as above. Results are averages±s.e.m. P values were determined and are indicated as above.\nFIG. 23. LTβ is required for IKKα nuclear localization and STAT3 phosphorylation. Mice carrying Myc-CaP tumors were castrated and treated with vehicle or LTβR-Ig as described above. Paraffin-embedded sections were analyzed for IKKα nuclear localization and STAT3 phosphorylation.\nMouse prostate and CaP tissues and dissected metastatic tumors were immersed in 10% neutral buffered formalin before sectioning and paraffin embedding. […]"}, "myc-CaP tumors": {"tested_on": "myc-CaP tumors", "experiment": "CR-CaP re-growth (tumor volume) of s.c. myc-CaP allografts after castration", "type": "in vivo, FVB mice", "conditions": "castrated mice bearing s.c. myc-CaP tumors", "protocol": "FIG. 4. IKKβ-dependent lymphotoxin production by tumor-infiltrating B cells stimulates IKKα-dependent androgen-free survival. A. RNA from splenic B cells of Ikkβ^F/F and Ikkβ^Δ/Δ mice was analyzed for LTα and LTβ expression as above. Results are averages±s.d. (n=3). B. Lethally irradiated FVB males were reconstituted with BM from B-Ltβ^−/− or T-Ltβ^−/− mice (n=6 per group). After 8 weeks, myc-CaP tumors were established, mice were castrated and tumor volume was measured as above. Results are averages±s.e.m. C. FVB mice (n=6 each group) bearing myc-CaP tumors were castrated and given hIgG or LTβR-Ig (100 μg) every 5 days, starting 4 days before castration. Tumor volume was measured as above. Results are averages±s.e.m. […] Mice were castrated and tumor volume was measured. […] After 6 hrs, the cells were cultured with or without flutamide (10 μM) in the absence or presence of LTα2β1, and cell number was determined. […] After 12 hrs, cells were stimulated for 1 hr with LTα2β1, collected, divided into cytosolic (C) and nuclear (N) fractions and IKKα and histone H3 distribution was determined. In A, B, C, D and E, P values were determined and are indicated as above.\nFIG. 8. […] Five months later, mice were sacrificed and prostate tumor weight and incidence of lymph node, lung and liver metastases were determined. […] Tumor volume in above mice was measured every 2-3 days. […] Tumor volume was measured as above. […]"}, "STAT3 [2]": {"tested_on": "STAT3", "experiment": "STAT3 phosphorylation in IL-6-stimulated Myc-CaP cells (immunoblotting)", "type": "cell-based, mouse", "conditions": "1 hr pre-treatment, IL-6 20 ng/ml 30 min", "protocol": "as §1, §2"}}, "data": [{"smiles": "N#C/C(=C/c1ccc(O)c(O)c1)C(=O)NCc1ccccc1", "note": "[A490]", "values": [{"measurement": "IKK activation (IκBα phosphorylation)", "setting": "IKK", "value": "did not inhibit"}, {"measurement": "STAT3 activation (phosphorylation) in CaP cells of tumors", "setting": "STAT3 [1]", "value": "inhibitable"}, {"measurement": "CR-CaP growth / appearance after castration (tumor volume)", "setting": "myc-CaP tumors", "value": "delayed"}]}, {"smiles": "COc1c(Cl)cc2c([nH]c3cnccc32)c1NC(=O)c1cccnc1C", "note": "[ML120B, N-(6-chloro-7-methoxy-9H-β-carbolin-8-yl)-2-methylnicotinamide]", "values": [{"measurement": "STAT3 activation (phosphorylation)", "setting": "STAT3 [2]", "value": "did not inhibit"}]}]}
